From ChEMBL document CHEMBL3588784, “Design of selective PI3Kα inhibitors starting from a promiscuous pan kinase scaffold” (Bioorg Med Chem Lett, 2015)

How the values were obtained:
[1] = Octanol/buffer partition co-efficient, log D of the compound at pH 7.4 after 30 mins by shake-flask method; type: physicochemical
[2] = target: T1, Phosphatidylinositol 4,5-bisphosphate 3-kinase catalytic subunit alpha isoform (Homo sapiens, UniProt P42336); experiment: Inhibition of recombinant human PI3Kalpha using PIP2/ATP as substrate preincubated for 20 mins followed by substrate addition measured after 80 mins by Kinase-Glo plus assay
T1 sequence (P42336 whole entry, canonical isoform): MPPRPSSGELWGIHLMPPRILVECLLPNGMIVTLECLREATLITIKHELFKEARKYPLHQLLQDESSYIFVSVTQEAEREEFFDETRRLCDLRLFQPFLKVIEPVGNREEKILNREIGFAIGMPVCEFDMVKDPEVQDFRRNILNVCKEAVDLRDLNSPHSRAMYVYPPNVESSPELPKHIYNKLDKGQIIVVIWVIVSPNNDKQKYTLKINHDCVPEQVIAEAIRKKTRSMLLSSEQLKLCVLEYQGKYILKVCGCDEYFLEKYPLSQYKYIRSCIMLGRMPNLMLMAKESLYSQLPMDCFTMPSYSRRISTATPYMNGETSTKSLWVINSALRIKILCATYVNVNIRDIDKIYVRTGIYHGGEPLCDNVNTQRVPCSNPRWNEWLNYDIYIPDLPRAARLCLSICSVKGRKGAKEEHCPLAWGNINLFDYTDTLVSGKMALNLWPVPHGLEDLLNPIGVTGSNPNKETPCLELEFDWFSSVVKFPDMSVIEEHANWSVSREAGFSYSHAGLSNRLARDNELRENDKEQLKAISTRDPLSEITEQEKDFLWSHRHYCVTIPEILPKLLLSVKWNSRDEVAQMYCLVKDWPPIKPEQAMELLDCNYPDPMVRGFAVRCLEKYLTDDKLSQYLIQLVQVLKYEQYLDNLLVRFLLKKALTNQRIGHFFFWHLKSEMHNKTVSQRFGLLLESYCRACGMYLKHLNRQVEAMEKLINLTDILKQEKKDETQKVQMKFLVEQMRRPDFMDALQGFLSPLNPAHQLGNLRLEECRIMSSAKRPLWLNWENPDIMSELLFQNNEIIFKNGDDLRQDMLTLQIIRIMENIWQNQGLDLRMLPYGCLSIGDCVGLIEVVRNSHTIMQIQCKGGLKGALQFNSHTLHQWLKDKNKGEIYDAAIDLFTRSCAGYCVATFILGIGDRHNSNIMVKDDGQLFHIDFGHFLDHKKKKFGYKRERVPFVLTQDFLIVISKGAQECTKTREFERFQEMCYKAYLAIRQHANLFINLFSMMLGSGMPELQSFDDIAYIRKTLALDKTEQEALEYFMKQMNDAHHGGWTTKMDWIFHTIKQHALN

[3] = target: T1, Phosphatidylinositol 4,5-bisphosphate 3-kinase catalytic subunit alpha isoform; experiment: Inhibition of PI3Kalpha in human BT474 cells assessed as inhibition of Akt phosphorylation at […] after 2 hrs by ELISA; type: cell-based, BT-474
[4] = target: Vascular endothelial growth factor receptor 2 (Homo sapiens, UniProt P35968); experiment: Inhibition of KDR (unknown origin)
Chain of Vascular endothelial growth factor receptor 2 (P35968 whole entry, canonical isoform): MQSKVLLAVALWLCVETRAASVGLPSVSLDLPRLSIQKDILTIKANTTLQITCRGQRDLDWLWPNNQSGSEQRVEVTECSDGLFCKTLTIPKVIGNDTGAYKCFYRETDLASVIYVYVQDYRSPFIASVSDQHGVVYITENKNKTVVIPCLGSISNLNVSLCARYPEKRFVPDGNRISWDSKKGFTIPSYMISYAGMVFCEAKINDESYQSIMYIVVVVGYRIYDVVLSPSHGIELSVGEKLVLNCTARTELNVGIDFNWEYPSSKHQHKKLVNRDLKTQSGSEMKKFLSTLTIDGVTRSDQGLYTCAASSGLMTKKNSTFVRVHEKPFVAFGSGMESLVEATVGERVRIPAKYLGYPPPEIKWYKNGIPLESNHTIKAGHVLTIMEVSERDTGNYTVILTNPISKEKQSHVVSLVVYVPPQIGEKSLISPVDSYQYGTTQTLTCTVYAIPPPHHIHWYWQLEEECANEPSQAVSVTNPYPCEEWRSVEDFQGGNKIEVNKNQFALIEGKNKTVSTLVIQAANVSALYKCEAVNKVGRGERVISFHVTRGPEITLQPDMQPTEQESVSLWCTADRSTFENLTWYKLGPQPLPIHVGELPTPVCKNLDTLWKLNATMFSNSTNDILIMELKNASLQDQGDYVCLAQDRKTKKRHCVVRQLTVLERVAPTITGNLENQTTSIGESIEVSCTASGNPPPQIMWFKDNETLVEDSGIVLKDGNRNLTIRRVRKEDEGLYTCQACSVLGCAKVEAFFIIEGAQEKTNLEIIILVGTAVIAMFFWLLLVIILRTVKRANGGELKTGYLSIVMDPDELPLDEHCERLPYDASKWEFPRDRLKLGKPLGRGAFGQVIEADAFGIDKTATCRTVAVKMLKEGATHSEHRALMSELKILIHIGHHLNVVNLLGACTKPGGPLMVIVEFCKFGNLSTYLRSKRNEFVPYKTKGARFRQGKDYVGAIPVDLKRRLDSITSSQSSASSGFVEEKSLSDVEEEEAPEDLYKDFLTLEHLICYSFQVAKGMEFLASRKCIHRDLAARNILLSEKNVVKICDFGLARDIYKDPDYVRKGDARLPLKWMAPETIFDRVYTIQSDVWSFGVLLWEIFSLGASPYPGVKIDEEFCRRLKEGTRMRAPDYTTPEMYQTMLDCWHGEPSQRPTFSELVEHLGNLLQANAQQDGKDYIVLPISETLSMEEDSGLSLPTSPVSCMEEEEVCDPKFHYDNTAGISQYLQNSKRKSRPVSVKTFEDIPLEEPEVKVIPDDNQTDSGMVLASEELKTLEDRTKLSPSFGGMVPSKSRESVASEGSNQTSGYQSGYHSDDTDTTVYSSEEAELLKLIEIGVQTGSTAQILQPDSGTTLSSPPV

[5] = target: T2, Phosphatidylinositol 4,5-bisphosphate 3-kinase catalytic subunit beta isoform (Homo sapiens, UniProt P42338); experiment: Inhibition of PI3Kbeta in human MDA-MB-468 cells assessed as inhibition of Akt phosphorylation at Ser-473 after 2 hrs by ELISA; type: cell-based
T2 sequence (P42338 whole entry, canonical isoform): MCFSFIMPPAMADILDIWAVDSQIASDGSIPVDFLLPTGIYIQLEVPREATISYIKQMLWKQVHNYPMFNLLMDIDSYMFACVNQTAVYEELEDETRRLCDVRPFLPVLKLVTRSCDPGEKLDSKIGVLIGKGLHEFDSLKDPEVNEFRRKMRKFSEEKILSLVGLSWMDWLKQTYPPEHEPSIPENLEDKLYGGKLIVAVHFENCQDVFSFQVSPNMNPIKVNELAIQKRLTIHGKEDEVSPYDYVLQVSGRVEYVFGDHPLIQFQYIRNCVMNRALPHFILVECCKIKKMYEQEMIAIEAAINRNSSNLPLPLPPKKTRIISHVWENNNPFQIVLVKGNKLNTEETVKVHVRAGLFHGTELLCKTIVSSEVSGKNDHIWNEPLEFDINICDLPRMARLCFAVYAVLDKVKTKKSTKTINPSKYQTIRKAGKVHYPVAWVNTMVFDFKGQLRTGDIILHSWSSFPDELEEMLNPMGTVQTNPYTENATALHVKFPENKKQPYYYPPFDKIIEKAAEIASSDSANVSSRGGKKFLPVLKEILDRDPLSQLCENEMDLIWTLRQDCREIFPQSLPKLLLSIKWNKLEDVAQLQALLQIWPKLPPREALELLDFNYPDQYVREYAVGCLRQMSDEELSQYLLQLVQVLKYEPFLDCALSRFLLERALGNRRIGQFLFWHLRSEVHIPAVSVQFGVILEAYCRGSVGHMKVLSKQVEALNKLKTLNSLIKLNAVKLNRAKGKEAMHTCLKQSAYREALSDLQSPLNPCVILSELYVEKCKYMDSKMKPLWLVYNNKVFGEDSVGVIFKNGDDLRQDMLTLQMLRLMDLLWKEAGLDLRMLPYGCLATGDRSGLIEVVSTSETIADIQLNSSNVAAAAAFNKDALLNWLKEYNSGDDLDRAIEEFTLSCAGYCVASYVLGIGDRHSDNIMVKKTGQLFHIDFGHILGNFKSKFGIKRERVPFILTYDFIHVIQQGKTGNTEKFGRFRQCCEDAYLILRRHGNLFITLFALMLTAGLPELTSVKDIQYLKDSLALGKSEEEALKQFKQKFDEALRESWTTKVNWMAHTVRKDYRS

[6] = target: T2, Phosphatidylinositol 4,5-bisphosphate 3-kinase catalytic subunit beta isoform; experiment: Inhibition of recombinant human PI3Kbeta using PIP2/ATP as substrate preincubated for 20 mins followed by substrate addition measured after 80 mins by Kinase-Glo plus assay
[7] = target: Phosphatidylinositol 4,5-bisphosphate 3-kinase catalytic subunit gamma isoform (Homo sapiens, UniProt P48736); experiment: Inhibition of recombinant human PI3Kgamma using PIP2/ATP as substrate preincubated for 20 mins followed by substrate addition measured after 80 mins by Kinase-Glo plus assay
Chain of Phosphatidylinositol 4,5-bisphosphate 3-kinase catalytic subunit gamma isoform (P48736 whole entry, canonical isoform): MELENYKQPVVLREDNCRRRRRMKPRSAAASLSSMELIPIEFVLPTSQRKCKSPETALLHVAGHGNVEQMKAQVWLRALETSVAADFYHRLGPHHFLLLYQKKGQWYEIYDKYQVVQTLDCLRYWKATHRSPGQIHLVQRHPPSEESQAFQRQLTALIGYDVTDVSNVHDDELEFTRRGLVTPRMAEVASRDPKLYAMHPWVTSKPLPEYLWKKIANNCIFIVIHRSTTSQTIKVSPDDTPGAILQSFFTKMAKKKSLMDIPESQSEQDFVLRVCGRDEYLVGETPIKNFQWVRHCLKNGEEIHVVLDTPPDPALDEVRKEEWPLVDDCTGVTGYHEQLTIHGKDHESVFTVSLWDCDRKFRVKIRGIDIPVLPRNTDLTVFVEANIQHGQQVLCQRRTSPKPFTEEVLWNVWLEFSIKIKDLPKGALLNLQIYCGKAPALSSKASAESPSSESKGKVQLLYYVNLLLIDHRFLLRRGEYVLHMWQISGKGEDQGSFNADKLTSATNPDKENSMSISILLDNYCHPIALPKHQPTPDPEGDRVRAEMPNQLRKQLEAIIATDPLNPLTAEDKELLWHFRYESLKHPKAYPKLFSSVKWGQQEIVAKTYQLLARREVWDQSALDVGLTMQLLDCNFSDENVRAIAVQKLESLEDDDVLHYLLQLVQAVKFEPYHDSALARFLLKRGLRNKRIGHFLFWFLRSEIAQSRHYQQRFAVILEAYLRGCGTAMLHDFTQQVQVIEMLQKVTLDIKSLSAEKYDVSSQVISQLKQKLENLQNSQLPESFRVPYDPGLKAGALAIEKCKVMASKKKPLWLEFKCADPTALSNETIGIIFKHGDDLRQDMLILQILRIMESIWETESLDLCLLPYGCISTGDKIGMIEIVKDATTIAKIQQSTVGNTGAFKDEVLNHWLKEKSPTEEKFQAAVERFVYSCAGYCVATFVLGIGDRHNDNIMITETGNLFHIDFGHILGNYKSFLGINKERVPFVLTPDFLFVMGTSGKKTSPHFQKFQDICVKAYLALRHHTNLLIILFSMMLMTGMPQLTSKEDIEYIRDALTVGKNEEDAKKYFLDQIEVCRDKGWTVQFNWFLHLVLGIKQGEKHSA

[8] = target: T3, Phosphatidylinositol 4,5-bisphosphate 3-kinase catalytic subunit delta isoform (Homo sapiens, UniProt O00329); experiment: Inhibition of recombinant human PI3Kdelta using PIP2/ATP as substrate preincubated for 20 mins followed by substrate addition measured after 80 mins by Kinase-Glo plus assay
T3 sequence (O00329 whole entry): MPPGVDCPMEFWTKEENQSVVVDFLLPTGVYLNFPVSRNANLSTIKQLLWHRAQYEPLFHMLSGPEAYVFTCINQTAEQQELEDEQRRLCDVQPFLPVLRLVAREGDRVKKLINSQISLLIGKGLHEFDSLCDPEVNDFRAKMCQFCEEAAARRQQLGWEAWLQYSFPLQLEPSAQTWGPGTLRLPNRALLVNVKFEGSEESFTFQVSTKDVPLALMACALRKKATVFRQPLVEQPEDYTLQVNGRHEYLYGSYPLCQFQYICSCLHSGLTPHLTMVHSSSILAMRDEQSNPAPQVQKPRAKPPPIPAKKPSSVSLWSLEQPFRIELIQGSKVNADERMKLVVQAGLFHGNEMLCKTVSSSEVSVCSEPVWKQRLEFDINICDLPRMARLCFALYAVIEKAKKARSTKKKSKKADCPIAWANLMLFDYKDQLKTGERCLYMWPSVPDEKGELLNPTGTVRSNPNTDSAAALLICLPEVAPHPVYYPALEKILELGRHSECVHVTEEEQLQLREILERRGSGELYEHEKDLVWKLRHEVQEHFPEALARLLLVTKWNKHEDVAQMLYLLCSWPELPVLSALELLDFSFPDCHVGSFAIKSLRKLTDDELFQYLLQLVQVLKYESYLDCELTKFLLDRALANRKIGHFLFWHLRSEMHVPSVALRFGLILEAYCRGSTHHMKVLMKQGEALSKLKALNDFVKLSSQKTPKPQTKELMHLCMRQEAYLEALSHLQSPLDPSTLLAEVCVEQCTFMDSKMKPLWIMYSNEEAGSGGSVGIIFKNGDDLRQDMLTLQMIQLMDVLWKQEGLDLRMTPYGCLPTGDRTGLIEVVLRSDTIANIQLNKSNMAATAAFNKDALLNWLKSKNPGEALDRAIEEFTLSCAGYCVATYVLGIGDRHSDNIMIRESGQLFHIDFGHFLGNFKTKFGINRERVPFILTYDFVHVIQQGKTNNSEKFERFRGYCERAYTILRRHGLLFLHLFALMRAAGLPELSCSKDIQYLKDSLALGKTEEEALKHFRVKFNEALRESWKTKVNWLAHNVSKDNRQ

[9] = target: Serine/threonine-protein kinase mTOR (Homo sapiens, UniProt P42345); experiment: Inhibition of m-TOR (unknown origin)
[10] = target: Receptor-interacting serine/threonine-protein kinase 2 (Homo sapiens) (UniProt O43353); experiment: Inhibition of RIPK2 (unknown origin) at 1 uM preincubated for 5 mins with enzyme and substrate followed by ATP addition relative to control
[11] = target: Glycogen synthase kinase-3 beta (Homo sapiens) (UniProt P49841); experiment: Inhibition of GSK-3beta (unknown origin) at 1 uM preincubated for 5 mins with enzyme and substrate followed by ATP addition relative to control
Chain of Glycogen synthase kinase-3 beta (Homo sapiens) (P49841 whole entry, looked up): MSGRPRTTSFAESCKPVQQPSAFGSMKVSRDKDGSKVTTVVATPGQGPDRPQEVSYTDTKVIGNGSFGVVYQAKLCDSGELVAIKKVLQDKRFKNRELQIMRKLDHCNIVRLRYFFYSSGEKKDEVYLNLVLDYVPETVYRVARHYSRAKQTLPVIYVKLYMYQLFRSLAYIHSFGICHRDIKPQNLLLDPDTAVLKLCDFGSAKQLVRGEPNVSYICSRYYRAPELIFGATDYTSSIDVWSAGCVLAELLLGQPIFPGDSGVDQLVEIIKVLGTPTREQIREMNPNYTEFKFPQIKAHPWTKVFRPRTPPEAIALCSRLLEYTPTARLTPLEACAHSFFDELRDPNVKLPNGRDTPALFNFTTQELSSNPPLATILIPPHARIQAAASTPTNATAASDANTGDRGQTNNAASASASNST

[12] = target: Dual specificity tyrosine-phosphorylation-regulated kinase 1A (Homo sapiens) (UniProt Q13627); experiment: Inhibition of DYRK1A (unknown origin) at 1 uM preincubated for 5 mins with enzyme and substrate followed by ATP addition relative to control

| Compound | logD at 0.5 h [1] | IC50 [2] [nM] | IC50 [3] [nM] | IC50 [4] [nM] | IC50 [5] [nM] | IC50 [6] [nM] | IC50 [7] [nM] | IC50 [8] [nM] | IC50 [9] [nM] | inhibition [10] [%] | inhibition [11] [%] | inhibition [12] [%] |
| --- | --- | --- | --- | --- | --- | --- | --- | --- | --- | --- | --- | --- |
| CN(C)CC(=O)N1CCC(n2ncc(-c3cnc(N)c(-n4nnc5ccccc54)n3)n2)CC1 | 1.9 | 21 | 140 | 210 | 7800 | 650 | – | – | – | – | – | – |
| CN(C)CC(=O)N1CCC(n2ccc(-c3cnc(N)c(-n4nnc5ccccc54)n3)n2)CC1 | 1.8 | 27 | 250 | 170 | 10000 | 1700 | – | – | – | – | – | – |
| CN(C)CC(=O)N1CCC(n2cc(-c3cnc(N)c(-n4nnc5ccccc54)n3)cn2)CC1 | 1.7 | 16 | 58 | 29 | 13000 | 900 | 280 | 20 | 15000 | – | – | – |
| CN(C)CC(=O)N1CCC(c2cc(-c3cnc(N)c(-n4nnc5ccccc54)n3)n(C)n2)CC1 | 1.8 | 6 | 91 | 90 | 4300 | 380 | – | – | – | – | – | – |
| CN(C)CC(=O)N1CCC(c2cn(C)c(-c3cnc(N)c(-n4nnc5ccccc54)n3)n2)CC1 | 1.3 | 64 | 690 | 6600 | 7900 | 1300 | – | – | – | – | – | – |
| CN(C)CC(=O)N1CCC(c2nc(-c3cnc(N)c(-n4nnc5ccccc54)n3)nn2C)CC1 | 1 | 280 | 3900 | 1200 | 12000 | 2400 | – | – | – | – | – | – |
| CN(C)CC(=O)N1CCC(c2nc(-c3cnc(N)c(-n4nnc5ccccc54)n3)n(C)n2)CC1 | 0.9 | 29 | 270 | 9000 | 6900 | 1000 | 650 | 17 | 21000 | 60 | 60 | 60 |
